Results on five compounds are retold here after patent US20090227619A1, “Harmine derivatives, intermediates used in their preparations, preparation processes and use therefo” (priority 2003, published 2009).

Like-named read-outs stand apart in the source and are kept apart here.

The test system of one data set is BGC-823. The experiment in a line: In vitro cytotoxicity, IC50 by MTT method, BGC-823. It counts as cell-based. The essentials:
(§1)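 MTT viability, 48 h exposure: cells 10^5/ml in RPMI1640 + 10% FBS, 37 °C/5% CO2; MTT 4 h, DMSO solubilisation, A490.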

The subject of another data set is HepG2. The experiment in a line: In vitro cytotoxicity, IC50 by MTT method, HepG2. It counts as cell-based, human. The essentials: as §1
For another data set, the system named is NIH3T3. The data set is described as follows: In vitro cytotoxicity, IC50 by MTT method, NIH3T3. It counts as cell-based. The essentials: as §1
Data set [1] has as its system CT-DNA. The experiment in a line: DNA thermal denaturation, determination of ΔTm. The data set is classed as binding. The note with it: 20 uM compound, Tm of CT-DNA alone 61° C. The essentials:
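CT-DNA at 15 ug/ml in PE buffer (1 mM Na2HPO4, 0.1 mM EDTA, pH 7.6), heated at 0.5° C./min from 25 to 95° C. Tm taken as hyperchromic transition mid-point; ΔTm = Tm of drug-DNA complex minus Tm of DNA alone, mean of three runs.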

The next data set has as its system Bel-7402. The data set is described as follows: In vitro cytotoxicity, IC50 by MTT method, Bel-7402. The data set is classed as cell-based. The method in brief: as §1
For a further data set, the system named is PLA-801. The experiment in a line: In vitro cytotoxicity, IC50 by MTT method, PLA-801. It counts as cell-based. The essentials: as §1
In a further data set the test system is Lovo. The experiment in a line: In vitro cytotoxicity, IC50 by MTT method, Lovo. The data set is classed as cell-based. The essentials:
as §1

The test system of another data set is Kunming mice. Particulars: summary Table 34, compounds marked *, results [153] of the previous tests; in mg/kg; cited from earlier work.
The next data set deals with Hela. The experiment in a line: In vitro cytotoxicity, IC50 by MTT method, Hela. It counts as cell-based. The essentials: as §1
For data set [2], the system named is CT-DNA. The data set is described as follows: UV absorption spectrum method with CT-DNA. It counts as binding. Particulars: CT-DNA 40 ug/ml, compound 20 uM, 37° C. for 2 h, OD at 260 nm.
The next data set has as its system HepG2 cells. The experiment in a line: FCM analysis of apoptosis of HepG2 cells. The note with it: FIG. 6. The data set is classed as cell-based, human.
The mark [3] stands for this setting: comparison table 43, in vivo, Lewis lung cancer.
Setting [4] is: Homo sapiens, BGC-823, BGC823, MTT, read-out: IC50.
Where [5] appears, read: Homo sapiens, HepG2, MTT, read-out: IC50.
The mark [6] stands for this setting: Mus musculus, NIH3T3, MTT, read-out: IC50.
Where [7] appears, read: Homo sapiens, Bel-7402, BeI7402, MTT, read-out: IC50.
Setting [8] is: Homo sapiens, Lovo, MTT, read-out: IC50.
[9] abbreviates: Homo sapiens, Hela, MTT, read-out: IC50.
Where [10] appears, read: comparison table 43, in vivo, S180 sarcoma.
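Wherever Inhibition rate (%) Lewis cancer is given: mice implanted subcutaneously in the axilla with Lewis lung tumor cells, treated starting the following day, killed roughly three weeks after implantation.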

With `COc1ccc2c3ccnc(C)c3n(C)c2c1` [Compound 2, 7-methoxyl-1,9-dimethyl-β-carboline], the “Inhibition rate (%) Lewis cancer” value with Lewis lung cancer (setting [3]) is on record as 38.1%. Besides, the IC50 is 50 µM with BGC-823 (setting [4]); 20 µM in the data set on HepG2 (setting [5]); 40 µM with NIH3T3 (setting [6]); 60 µM in the data set with Bel-7402 (setting [7]); 30 µM with PLA-801 (PLA-801, MTT, read-out: IC50); 40 µM with Lovo (setting [8]). Besides, the IC50 with Hela (setting [9]) was determined as 10 µM. Also, in the data set on CT-DNA [1] (CT-DNA thermal denaturation), the shift in melting temperature (ΔTm) was found to be 5.3 °C. The LD50 in the data set on Kunming mice is on record as 28.92. In addition, in the data set with S180 sarcoma (setting [10]), the “Inhibition rate (%) S180 sarcomata” value is given as 32.1%.
As for `CCn1c2cc(OC)ccc2c2ccnc(C)c21` [Compound 3, 7-methoxyl-9-ethyl-1-methyl-β-carboline], in the data set on Lewis lung cancer (mouse, in vivo), the “Inhibition rate (%) Lewis cancer” value was found to be 42.0%. For the same compound, the IC50 stood at 50 µM in the data set on BGC-823 (Homo sapiens, BGC-823); 10 µM with HepG2 (Homo sapiens, HepG2); 70 µM in the data set with NIH3T3 (Mus musculus, NIH3T3); 30 µM with Bel-7402 (Homo sapiens, Bel-7402); 20 µM with PLA-801; 170 µM with Lovo (Homo sapiens, LoVo). This compound also had an IC50 in the data set on Hela (Homo sapiens, HeLa) of 20 µM. In addition, the “Influence on the UV absorption of DNA” value in the data set on CT-DNA [2] was “reduce the UV absorption of DNA”. Also, the thermal shift (ΔTm) in the data set on CT-DNA [1] (CT-DNA thermal denaturation) stood at 7.3 °C. For the same compound, the LD50 with Kunming mice is 24.25. In addition, in the data set on S180 sarcoma (mouse, in vivo), the “Inhibition rate (%) S180 sarcomata” value amounted to 37.6%.
In the case of `CCCCn1c2cc(OC)ccc2c2ccnc(C)c21` [Compound 4, 7-methoxyl-9-n-butyl-1-methyl-β-carboline], in the data set on Lewis lung cancer (setting [3]), the “Inhibition rate (%) Lewis cancer” value turned out to be 44.0%. Further, the IC50 was determined as 70 µM in the data set on BGC-823 (setting [4]); 60 µM in the data set on HepG2 (setting [5]); 40 µM with NIH3T3 (setting [6]); 60 µM with Bel-7402 (setting [7]); 110 µM with PLA-801 (PLA-801, MTT, read-out: IC50); 90 µM in the data set on Lovo (setting [8]). Besides, in the data set with Hela (setting [9]), the IC50 is 30 µM. Also, in the data set on CT-DNA [2], the “Influence on the UV absorption of DNA” value was “reduce the UV absorption of DNA”. For the same compound, in the data set on CT-DNA [1] (CT-DNA thermal denaturation), the thermal shift (ΔTm) is 6.7 °C. In the data set with Kunming mice, the LD50 is recorded as 26.45. Also, in the data set with S180 sarcoma (setting [10]), the “Inhibition rate (%) S180 sarcomata” value is recorded as 40.9%.
`COc1ccc2c3ccnc(C)c3n(Cc3ccccc3)c2c1` [Compound 6, 9-benzyl-7-methoxy-1-methyl-β-carboline]: in the data set with Lewis lung cancer (setting [3]), the “Inhibition rate (%) Lewis cancer” value stood at 46.9%. Moreover, the IC50 was 100 µM in the data set on BGC-823 (setting [4]); 90 µM with HepG2 (setting [5]); 50 µM with NIH3T3 (setting [6]); 60 µM in the data set on Bel-7402 (setting [7]); 60 µM with PLA-801 (PLA-801, MTT, read-out: IC50); 50 µM with Lovo (setting [8]). The IC50 in the data set on Hela (setting [9]) was 270 µM. Moreover, in the data set on CT-DNA [2], the “Influence on the UV absorption of DNA” value was “reduce the UV absorption of DNA”. Also, the thermal shift (ΔTm) in the data set on CT-DNA [1] (CT-DNA 15 ug/ml, PE buffer pH 7.6) stood at 10.3 °C; with CT-DNA [1] (CT-DNA thermal denaturation), 10.3 °C. Also, in the data set on Kunming mice, the LD50 is listed as 147.82. In the data set with S180 sarcoma (setting [10]), the “Inhibition rate (%) S180 sarcomata” value is 45.2%.
As for `CCOC(=O)c1cc2c3ccccc3n(Cc3c(F)c(F)c(F)c(F)c3F)c2c(C)n1` [Compound 60, ethyl 9-(2′,3′,4′,5′,6′-pentafluoro)benzyl-1-methyl-β-carboline-3-carboxylate], the IC50 in the data set with BGC-823 (BGC823 cell strain, read-out: IC50 BGC823) worked out at 4 µM; with HepG2 (HepG2 cell strain, read-out: IC50 HepG2), 30 µM; in the data set with NIH3T3 (NIH3T3 cell strain, read-out: IC50 NIH3T3) it was 40 µM; in the data set on Bel-7402 (Bel7402 cell strain, read-out: IC50 Bel7402) it was 100 µM; with PLA-801 (PLA-801 cell strain, read-out: IC50 PLA-801), 50 µM; in the data set with Lovo (Lovo cell strain, read-out: IC50 Lovo), 40 µM. Besides, in the data set on Hela (Hela cell strain, read-out: IC50 Hela), the IC50 is 20 µM. Moreover, the “Apoptosis of HepG2 cells (FCM analysis)” value in the data set on HepG2 cells was “apoptosis of HepG2 cells induced”.
